Reference: patent US7285572B2, “CaSR antagonist” (Japan Tobacco Inc., priority 2003, dated 2007)

Columns and labels:
human calcium receptor = target: T1, human calcium receptor (Homo sapiens, UniProt P41180); assay: Evaluation of antagonistic action on calcium receptor using reporter gene (luciferase); assay type: cell-based; settings: rat adrenal derived cells with luciferase and human calcium receptor cDNA, 5 mM calcium chloride, 4 hrs; read-out: IC50 (concentration showing 50% inhibitory rate of luciferase activity)
T1 construct: expressed in transfected cells; host or cells: cell strain derived from rat adrenal, co-transfected with luciferase cDNA
T1 sequence (P41180 20-1078): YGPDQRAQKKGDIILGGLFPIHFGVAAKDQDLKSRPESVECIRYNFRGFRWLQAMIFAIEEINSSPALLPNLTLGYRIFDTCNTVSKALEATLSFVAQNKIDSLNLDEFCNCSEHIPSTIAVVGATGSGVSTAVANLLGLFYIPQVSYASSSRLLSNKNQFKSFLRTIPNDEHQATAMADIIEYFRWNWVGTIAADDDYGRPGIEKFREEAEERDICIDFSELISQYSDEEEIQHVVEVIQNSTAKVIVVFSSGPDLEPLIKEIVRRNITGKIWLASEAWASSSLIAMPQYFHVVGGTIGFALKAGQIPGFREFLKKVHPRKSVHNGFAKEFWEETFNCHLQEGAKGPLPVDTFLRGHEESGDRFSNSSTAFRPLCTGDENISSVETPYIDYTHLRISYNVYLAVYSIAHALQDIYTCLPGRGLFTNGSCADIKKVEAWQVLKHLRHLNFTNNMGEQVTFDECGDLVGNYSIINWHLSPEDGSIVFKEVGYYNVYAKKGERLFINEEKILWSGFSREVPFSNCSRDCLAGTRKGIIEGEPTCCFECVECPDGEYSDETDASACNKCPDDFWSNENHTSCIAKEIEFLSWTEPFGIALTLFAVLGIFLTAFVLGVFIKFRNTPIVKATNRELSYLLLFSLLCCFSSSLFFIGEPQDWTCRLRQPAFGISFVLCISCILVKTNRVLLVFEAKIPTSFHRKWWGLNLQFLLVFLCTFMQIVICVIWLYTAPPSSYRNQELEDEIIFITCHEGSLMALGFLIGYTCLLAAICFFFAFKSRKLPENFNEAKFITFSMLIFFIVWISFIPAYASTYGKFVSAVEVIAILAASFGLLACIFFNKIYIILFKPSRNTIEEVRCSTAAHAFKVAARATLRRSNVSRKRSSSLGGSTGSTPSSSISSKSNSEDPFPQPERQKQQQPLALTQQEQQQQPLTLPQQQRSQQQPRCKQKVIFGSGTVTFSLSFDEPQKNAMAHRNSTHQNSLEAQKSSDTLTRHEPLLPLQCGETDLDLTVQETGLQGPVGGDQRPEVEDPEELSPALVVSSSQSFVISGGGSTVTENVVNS
Procedure: Evaluation of Antagonistic Action on Calcium Receptor Using Reporter Gene
Luciferase cDNA and human calcium receptor cDNA were introduced into a cell strain derived from rat adrenal to transform the cells, and the transformed cells were cultured in a medium (80 μl, F12 medium containing 0.5% dialyzed horse serum and 0.25% dialyzed bovine fetal serum). A dimethyl sulfoxide solution containing a test compound at 0.1-10000 μM was diluted 100-fold with the medium and added to the test compound group at 10 μl per well (final concentration of dimethyl sulfoxide is 0.1%). In the same manner as in test compound group, dimethyl sulfoxide diluted 100-fold with medium was added to a control group and a blank group. Then, 50 mM calcium chloride-containing medium was added to every well except the blank group at 10 μl per well (final concentration is 5 mM). A medium alone was added to the blank group. After culture for 4 hrs, luciferase substrate was added and the luciferase activity was measured with a photoluminometer. The inhibitory rate (%) was calculated from the obtained measured values according to the following formula.
Based on the results, the concentration (IC50) showing 50% inhibitory rate was determined.

PTH secretion [1] = assay: PTH secretagogue action, oral administration to fasted male SD rats, serum PTH by ELISA; assay type: in vivo, rat; settings: 3 mg/kg oral, test compound administration group
Procedure: The test compound was orally administered to 5 to 9-week-old male SD rats (Charles River Japan, Inc.) fasted for 20 hr, using a solvent (0.5% aqueous methyl cellulose solution) at a dose of 3 mg/5 ml/kg or 30 mg/5 ml/kg. A solvent alone was orally administered to the control group at a dose of 5 ml/kg. The blood was drawn from the tail vein 15 min, 30 min, 60 min and 120 min after the administration of the test compound, and serum was obtained. The serum PTH concentration was measured using rat PTH ELISA kit (Amersham Biosciences).

CYP2D6 = target: T2, CYP2D6 (Homo sapiens, UniProt P10635); assay: Metabolic enzyme CYP2D6 inhibitory activity (BD Bioscience kit); assay type: in vitro ADME; settings: enzyme activity free of test compound as 100%; read-out: CYP2D6 IC50 (concentration showing 50% inhibition)
T2 construct: purchased BD Bioscience
Procedure: Metabolic Enzyme CYP2D6 Inhibitory Activity
Using a metabolic enzyme CYP2D6 inhibition measurement kit (BD Bioscience) and following the manual of the kit, the inhibitory activity of the test compound was measured. With the enzyme activity free of the test compound as 100%, the concentration (IC50) showing 50% inhibition was determined. The results are shown in Table 8, wherein “>10” means over 10 μM.

PTH secretion [2] = assay: Reproductive test of NPS-2143 of the reference (PTH secretion); assay type: in vivo
PTH release = settings: cited from earlier work
[3] = tested on: osteoblast and osteoclast; settings: in vitro; cited from earlier work

T2 sequence (P10635 whole entry): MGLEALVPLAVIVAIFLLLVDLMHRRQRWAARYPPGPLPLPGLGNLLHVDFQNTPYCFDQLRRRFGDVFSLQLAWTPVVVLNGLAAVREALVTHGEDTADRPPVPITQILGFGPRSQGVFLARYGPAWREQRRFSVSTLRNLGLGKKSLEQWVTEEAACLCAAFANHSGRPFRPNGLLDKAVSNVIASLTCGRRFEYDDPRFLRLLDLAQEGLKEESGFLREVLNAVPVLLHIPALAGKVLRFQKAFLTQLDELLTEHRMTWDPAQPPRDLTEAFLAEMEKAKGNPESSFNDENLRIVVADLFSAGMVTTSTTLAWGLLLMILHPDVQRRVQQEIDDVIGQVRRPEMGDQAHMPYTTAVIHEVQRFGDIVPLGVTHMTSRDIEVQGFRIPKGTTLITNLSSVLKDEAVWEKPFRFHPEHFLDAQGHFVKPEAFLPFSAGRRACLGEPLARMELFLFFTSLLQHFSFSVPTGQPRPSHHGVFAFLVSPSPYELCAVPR

C[C@@H](OC[C@H](O)CNC(C)(C)Cc1ccc2ccccc2c1)c1ccccc1CCC(=O)O [Example 1, 3-[2-[(1R)-1-[(2R)-2-hydroxy-3-[[2-methyl-1-(naphthalen-2-yl)propan-2-yl]amino]propoxy]ethyl]phenyl]propionic acid]
IC50 (human calcium receptor): 25 nM
serum PTH concentration 15 min later (PTH secretion [1]): 24.86 ± 3.59 pg/mL
serum PTH concentration 30 min later (PTH secretion [1]): 18.58 ± 2.15 pg/mL
IC50 (CYP2D6): 9500 nM

CC(OC[C@H](O)CNC(C)(C)Cc1ccc2ccccc2c1)c1ccccc1-c1ccc(C(=O)NS(C)(=O)=O)cc1 (stereo partly shown) [Example 18]
IC50 (human calcium receptor): 22 nM
IC50 (CYP2D6): 8000 nM

CC(C)(Cc1ccc2ccccc2c1)NC[C@@H](O)COc1cccc(Cl)c1C#N [NPS-2143]
PTH secretion promoting action (duration) (PTH secretion [2]): sustained PTH secretion promoting action
blood concentration of NPS-2143 8 hours after the administration (PTH release; 100 μmol/kg, OVX rat): not less than 100 ng/ml
blood concentration of NPS-2143 24 hours later (PTH release; 100 μmol/kg, OVX rat): ≤ 10 ng/mL
blood PTH concentration 4 hours later (PTH release; NPS-2143 100 μmol/kg, OVX rat): about 140 pg/ml
blood PTH concentration in 30 minutes (PTH release; NPS-2143 100 μmol/kg, OVX rat): about 115 pg/ml
bone decrease or bone increase (PTH release; oral, OVX rats): free of bone decrease or bone increase
release of PTH (PTH release; oral, OVX rats): significantly promotes release of PTH
direct effect on osteoblast and osteoclast [3]: did not show any direct effect

C[C@@H](OC[C@H](O)CNC(C)(C)Cc1ccc2ccccc2c1)c1ccccc1-c1ccc(P(=O)(O)O)cc1 [Example 12, Disodium [2′-[(1R)-1-[(2R)-2-hydroxy-3-[[2-methyl-1-(naphthalen-2-yl)propan-2-yl]amino]propoxy]ethyl]biphenyl-4-yl]phosphonate]
IC50 (human calcium receptor): 29 nM
IC50 (CYP2D6): > 10000 nM
